Measurements from US20220281848A1, “PYRAZOLE-SUBSTITUTED PYRROLIDINONES AS HERBICIDES” (FMC Corporation, priority 2019, published 2022).

How the values were obtained:
[1] = test system: barnyardgrass (Echinochloa crus-galli, ECHCG); test: Test A pre-emergence, barnyardgrass; type: in vivo; details: after 13 d
Procedure, shortened: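 Values are percent plant damage 13 d after a pre-emergence spray (15.625, 62.5 or 250 g/ha; acetone/water with 0.5% Tween 20) applied to pots one day post-sowing, under glasshouse conditions of 24/16° C. and twice-daily watering.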

plants = test: Test D post-emergence, other plants of Tables D2 and D4; type: in vivo; details: for ALOMY damage rating (100=total damage to plant; 0=no damage to plant) / AVEFA damage rating (100=total damage to plant; 0=no damage to plant) / BEAVA damage rating (100=total damage to plant; 0=no damage to plant) / BROTE damage rating (100=total damage to plant; 0=no damage to plant) / BRSNN damage rating (100=total damage to plant; 0=no damage to plant) / CHEAL damage rating (100=total damage to plant; 0=no damage to plant) / GALAP damage rating (100=total damage to plant; 0=no damage to plant) / HORVW damage rating (100=total damage to plant; 0=no damage to plant) / KCHSC damage rating (100=total damage to plant; 0=no damage to plant) / LOLPE damage rating (100=total damage to plant; 0=no damage to plant) / POAAN damage rating (100=total damage to plant; 0=no damage to plant) / POLCO damage rating (100=total damage to plant; 0=no damage to plant) / SINAR damage rating (100=total damage to plant; 0=no damage to plant) / STEME damage rating (100=total damage to plant; 0=no damage to plant) / VERPE damage rating (100=total damage to plant; 0=no damage to plant): "Cereals" Postemergent, evaluated after 15 d; for damage to plant (100=total damage to plant; 0=no damage to plant), ABUTH: post-emergence
Procedure, shortened: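 Seeds treated with herbicide safener; sown in soil; glasshouse, 16 h light, 65% humidity. Sprayed day 1 (pre) or ~day 12 (post). Spray in 0.2% v/v adjuvant. Scored 0–100 damage: 20 DAA pre, 15 d post.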

CN1CC(c2cc(C(F)(F)F)n(C)n2)C(C(=O)Nc2ccc(F)cc2C(C)(F)F)C1=O (racemic) [Compound 26]
damage to plant (100=total damage; 0=no damage) ECHCG ([1]; Pre-Emergence at 62.5 g/ha): 90 | damage to plant (100=total damage; 0=no damage) ECHCG ([1]; Pre-Emergence at 250 g/ha): 90 | ALOMY damage rating (100=total damage to plant; 0=no damage to plant) (plants; Rates 130): 0 | ALOMY damage rating (100=total damage to plant; 0=no damage to plant) (plants; Rates 250): 0 | ALOMY damage rating (100=total damage to plant; 0=no damage to plant) (plants; Rates 500): 40 | AVEFA damage rating (100=total damage to plant; 0=no damage to plant) (plants; Rates 130): 0 | AVEFA damage rating (100=total damage to plant; 0=no damage to plant) (plants; Rates 250): 10 | AVEFA damage rating (100=total damage to plant; 0=no damage to plant) (plants; Rates 500): 60 | BEAVA damage rating (100=total damage to plant; 0=no damage to plant) (plants; Rates 130): 0 | BEAVA damage rating (100=total damage to plant; 0=no damage to plant) (plants; Rates 250): 0 | BEAVA damage rating (100=total damage to plant; 0=no damage to plant) (plants; Rates 500): 0 | BROTE damage rating (100=total damage to plant; 0=no damage to plant) (plants; Rates 130): 0 | BROTE damage rating (100=total damage to plant; 0=no damage to plant) (plants; Rates 250): 0 | BROTE damage rating (100=total damage to plant; 0=no damage to plant) (plants; Rates 500): 0 | BRSNN damage rating (100=total damage to plant; 0=no damage to plant) (plants; Rates 130): 0 | BRSNN damage rating (100=total damage to plant; 0=no damage to plant) (plants; Rates 250): 0 | BRSNN damage rating (100=total damage to plant; 0=no damage to plant) (plants; Rates 500): 0 | CHEAL damage rating (100=total damage to plant; 0=no damage to plant) (plants; Rates 130): 0 | CHEAL damage rating (100=total damage to plant; 0=no damage to plant) (plants; Rates 250): 0 | CHEAL damage rating (100=total damage to plant; 0=no damage to plant) (plants; Rates 500): 10 | GALAP damage rating (100=total damage to plant; 0=no damage to plant) (plants; Rates 130): 0 | GALAP damage rating (100=total damage to plant; 0=no damage to plant) (plants; Rates 250): 0 | GALAP damage rating (100=total damage to plant; 0=no damage to plant) (plants; Rates 500): 60 | HORVW damage rating (100=total damage to plant; 0=no damage to plant) (plants; Rates 130): 0 | HORVW damage rating (100=total damage to plant; 0=no damage to plant) (plants; Rates 250): 0 | HORVW damage rating (100=total damage to plant; 0=no damage to plant) (plants; Rates 500): 40 | KCHSC damage rating (100=total damage to plant; 0=no damage to plant) (plants; Rates 130): 0 | KCHSC damage rating (100=total damage to plant; 0=no damage to plant) (plants; Rates 250): 0 | KCHSC damage rating (100=total damage to plant; 0=no damage to plant) (plants; Rates 500): 0 | LOLPE damage rating (100=total damage to plant; 0=no damage to plant) (plants; Rates 130): 0 | LOLPE damage rating (100=total damage to plant; 0=no damage to plant) (plants; Rates 250): 0 | LOLPE damage rating (100=total damage to plant; 0=no damage to plant) (plants; Rates 500): 60 | POAAN damage rating (100=total damage to plant; 0=no damage to plant) (plants; Rates 130): 30 | POAAN damage rating (100=total damage to plant; 0=no damage to plant) (plants; Rates 250): 20 | POAAN damage rating (100=total damage to plant; 0=no damage to plant) (plants; Rates 500): 80 | POLCO damage rating (100=total damage to plant; 0=no damage to plant) (plants; Rates 130): 0 | POLCO damage rating (100=total damage to plant; 0=no damage to plant) (plants; Rates 250): 0 | POLCO damage rating (100=total damage to plant; 0=no damage to plant) (plants; Rates 500): 0 | SINAR damage rating (100=total damage to plant; 0=no damage to plant) (plants; Rates 130): 0 | SINAR damage rating (100=total damage to plant; 0=no damage to plant) (plants; Rates 250): 0 | SINAR damage rating (100=total damage to plant; 0=no damage to plant) (plants; Rates 500): 10 | STEME damage rating (100=total damage to plant; 0=no damage to plant) (plants; Rates 130): 0 | STEME damage rating (100=total damage to plant; 0=no damage to plant) (plants; Rates 250): 0 | STEME damage rating (100=total damage to plant; 0=no damage to plant) (plants; Rates 500): 0 | VERPE damage rating (100=total damage to plant; 0=no damage to plant) (plants; Rates 130): 0 | VERPE damage rating (100=total damage to plant; 0=no damage to plant) (plants; Rates 250): 0 | VERPE damage rating (100=total damage to plant; 0=no damage to plant) (plants; Rates 500): 80 | damage to plant (100=total damage to plant; 0=no damage to plant), ABUTH (plants; rate 130, evaluated after 15 d): 0 | damage to plant (100=total damage to plant; 0=no damage to plant), ABUTH (plants; rate 250, evaluated after 15 d): 0
